What all share (type): cell-based
Assay [1] deals with H446 small-cell lung cancer cells. The assay is described as follows: 3H thymidine incorporation proliferation assay, H446. The following applies: Homo sapiens, NCI-H446, 72 h. The method, then: (§1) The human tumor cell lines were obtained from the American Type Culture Collection (ATCC), P.O. Box 1549, Manassas, Va. 20108, USA, and cultured according to instructions from ATCC. Cells were seeded at 1.0×10^4 cells/well in 96-well plates. […] Plates were allowed to incubate for 72 h. The plates were pulsed with 1.0 μCi of ^3H-thymidine per well for the last 24 hours of the total incubation period, harvested, and read on a Top Count Scintillation Counter (Packard Instruments, Meriden, Conn.). The EC50 values—the ADC concentration at which cell proliferation was reduced by 50%—were determined using PRISM™ software, version 4.0 (GraphPad Software, La Jolla, Calif., USA).
(Dividing cells build labelled thymidine or BrdU into new DNA.)

Assay [2] deals with HepG2 hepatocellular carcinoma cell line. Description: 3H thymidine incorporation proliferation assay, HepG2. To be noted: Homo sapiens; HepG2, Table 1. The method, then:
as §1
(§2) The EC50 so values, along with those against HepG2 and HuH7D12 hepatocellular carcinoma cell lines, are shown in Table 1, plus data for the drug alone (formula (II)). […] That is, release of the drug from the conjugate is efficient.

The subject of assay [3] is HuH7D12 hepatocellular carcinoma cell line. The assay is described as follows: 3H thymidine incorporation proliferation assay, HuH7D12. To be noted: Homo sapiens, Huh-7D12; HuH7D12, Table 1. The method, then:
as §1, §2

The test system of assay [4] is Hep3B hepatocellular carcinoma cells. Description: 3H thymidine incorporation proliferation assay, Hep3B. To be noted: Homo sapiens, 72 h. The method, then:
as §1

One may read the EC50 as the concentration giving half of the maximal effect. Read a high EC50 as weaker potency. On to `CCCN(C(=O)[C@@H](NC(=O)[C@H]1CCCCN1C)[C@@H](C)CC)[C@H](C[C@@H](OC(C)=O)c1nc(C(=O)N[C@@H](Cc2ccc(N)cc2)C[C@H](C)C(=O)O)cs1)C(C)C` [Unconjugated Drug (II)], for which the EC50 came out at 0.2 nM in assay [1], 0.3 nM in assay [2], 0.2 nM in assay [3] and 0.2 nM in assay [4].

For the origin of these results see US20170326249A1, “ANTIBODY-DRUG CONJUGATE OF AN ANTI-GLYPICAN-3 ANTIBODY AND A TUBULYSIN ANALOG, PREPARATION AND USES” (Bristol-Myers Squibb Company, priority 2016, published 2017).
